# Data taken from publication PMC11750672, “The in vivo metabolic pathway of Deg-AZM and in vitro investigations into the contribution of drug metabolizing enzymes and drug transporters in the drug interactions of Deg-AZM, a clinical-stage new transgelin agonist” (Frontiers in Pharmacology, 2025).
# How the values were obtained:
# human liver microsomes = test system: human liver microsomes; design: method as in Gu et al., 2024; conditions: ref Gu et al., 2024; cited from earlier work
# CYP2C9 = target: T1, CYP2C9 (Homo sapiens, UniProt P11712); assay: HLM phenotyping assay with CYP2C9 inhibitor sulfaphenazole; type: in vitro ADME; conditions: 1 μM, HLM 0.5 mg/mL, NADPH, 90 min, with 10 µM sulfaphenazole
# T1 construct: from tissue; host or cells: human liver microsomes
# T1 sequence (P11712 whole entry): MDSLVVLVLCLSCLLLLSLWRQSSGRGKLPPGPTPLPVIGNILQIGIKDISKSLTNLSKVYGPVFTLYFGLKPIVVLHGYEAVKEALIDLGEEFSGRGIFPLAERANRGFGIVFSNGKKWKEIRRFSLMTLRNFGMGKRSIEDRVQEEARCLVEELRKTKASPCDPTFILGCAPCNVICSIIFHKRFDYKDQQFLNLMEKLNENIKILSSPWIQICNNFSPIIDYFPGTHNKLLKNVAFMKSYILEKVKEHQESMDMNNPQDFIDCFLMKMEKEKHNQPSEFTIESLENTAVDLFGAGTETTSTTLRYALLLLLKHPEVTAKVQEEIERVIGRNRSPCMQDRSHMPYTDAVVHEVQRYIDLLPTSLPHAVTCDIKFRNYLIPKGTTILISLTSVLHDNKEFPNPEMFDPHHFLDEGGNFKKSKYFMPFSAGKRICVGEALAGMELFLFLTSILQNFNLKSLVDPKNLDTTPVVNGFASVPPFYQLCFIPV
# Protocol: (§1) Deg-AZM (1 μM) was treated with pooled HLM (0.5 mg/mL) and NADPH (1 mM) for 90 min with or without seven specific inhibitors (10 µM furafylline for CYP1A2, 10 µM ticlopidine for CYP2B6, 5 µM montelukast for CYP2C8, 10 µM sulfaphenazole for CYP2C9, 10 µM ticlopidine for CYP2C19, 2.5 µM quinidine for CYP2D6, 1 µM ketoconazole for CYP3A). Isoform-selective probe substrates, 10 µM phenacetin for CYP1A2, 20 µM bupropion for CYP2B6, 2 µM amodiaquine for CYP2C8, 5 µM diclofenac for CYP2C9, 20 µM S-mephenytoin for CYP2C19, 5 µM bufuralol for CYP2D6, 2 µM midazolam for CYP3A4, were used as positive controls.
# pooled HLM = assay: HLM phenotyping assay, control group and positive control systems; type: in vitro ADME, human; conditions: 1 μM, HLM 0.5 mg/mL, NADPH, 90 min, control group without inhibitors
# Protocol: as §1
# CYP2B6 = assay: CYP induction (mRNA, qPCR) in human hepatocytes; conditions: for CYP2B6 induction, % of PC: PC phenobarbital 1 mM
# Excerpt: After culture and complete induction, total mRNA was extracted by TRNzol RNA Extraction Kit (purchased from Tiangen Biochemical Technology Co., Ltd., Beijing). The RNA was reverse transcribed into cDNA according to the instructions of the Transcriptor First Strand cDNA Synthesis Kit (purchased from Roche, Switzerland). Using reverse transcribed cDNA as a template, amplifying the internal reference genes of β-Actin of the sample and target genes of CYP1A2, CYP2B6, and CYP3A4 respectively to compare the expression differences.
# [1] = Bidirectional transport in Caco-2 cell monolayer; type: in vitro ADME, human; conditions: human, Caco-2, without quinidine
# Protocol: (§2) The human colon adenocarcinoma Caco-2 cell line was provided by Institute of Basic Medicine, Chinese Academy of Medical Sciences (Beijing, China). Caco-2 cells were cultured in a high sugar DMEM medium containing 10% (v/v) fetal bovine serum at 37°C and 5% CO2 incubator. Caco-2 cells (2.5 ×10^5/mL) was inoculated into Transwell polycarbonate membrane 12 well plate. The culture medium was changed every 2 days for the first 14 days, and then every day. After 21 consecutive days, fully differentiated cell monolayers were obtained for drug transport assays.
# (§3) Transepithelial electrical resistance (TEER) was used to indicate monolayer integrity. The electrode of the Millcell ERS-2 voltammeter was placed in HBSS solution for 20 min to pre-balance. At the same time, the culture medium was removed from the Transwell culture plate, 0.5 mL of pre-heated HBSS solution was added into the Apical (AP) of transwell, 1.5 mL of pre-heated HBSS solution was added into the Basolateral (BL) of transwell. After that, the transwell was balanced at 37°C for 20 min and then replaced the HBSS solution with the pre-heated HBSS solution, the TEER value was measured finally. Caco-2 cell monolayers with TEER >350 Ω cm^2 which means that the cells have formed a tight monolayer, were used for the experiment. The TEER value was calculated according to the following formula: TEER=TEERT ‐ TEERc×A where TEERT represented the TEER value (Ω) of the measured Transwell chamber with Caco-2 cells, TEERC was the TEER value (Ω) of the transwell chamber in the control group, and A was the membrane area of the transwell cavity (1.12 cm^2 in this experiment).
# (§4) In order to evaluate the usability of the Transwell model research, [^3H] Propranolol (0.5 μCi/mL) and [^14C] PEG4000 (1 μCi/mL) served as high-permeability and impermeability controls to verify the uptake direction on Caco-2 cell monolayer, respectively. Rhodamine 123 was used as a positive control for efflux mechanism in bidirectional transport assay on Caco-2 cell monolayer.
# (§5) The transmembrane permeability of Deg-AZM (2, 10 or 50 µM) and the potential to inhibit P-gp by Deg-AZM (2, 10 or 50 µM) were evaluated using Caco-2 cell monolayer both apical-to-basolateral (A-B) and basolateral-to-apical (B-A) directions at 37°C for 1 h, the experiments were conducted using quinidine (50 μM) as the inhibitor for P-gp. At the end of incubation, receiver and donor samples were both diluted by assay buffer and analyzed by LC-MS/MS.
# Caco-2 cell monolayer = assay: Bidirectional transport in Caco-2 cell monolayer; type: in vitro ADME, human; conditions: 2, 10 and 50 μM, intake direction
# Protocol: as §2, §3, §4, §5
# [2] = test system: inactivated monomeric enzyme; assay: Recombinant CYPs phenotyping assay, inactivated enzyme control; type: in vitro ADME, human; conditions: control group with inactivated monomeric enzyme, 1.5 h
# Protocol: Deg-AZM (1 μM) was treated with pooled NADPH (1 mM) and recombinant CYPs (rCYP1A2, rCYP2B6, rCYP2C8, rCYP2C9, rCYP2C19, rCYP2D6, and rCYP3A4, purchased from Research Institute for Liver Diseases Co. Ltd., Shanghai) at 25 pmol/mL for 90 min. The isoform-selective probe substrates served as positive controls (same as the positive controls in HLM phenotyping assays).
structure (smiles),measurement,setting,value
"CCC1OC(=O)C(C)C(O)C(C)C(O)C(C)(O)CC(C)CN(C)C(C)C(O)C1(C)O (stereo not drawn) [Deg-AZM, Deglycosylated azithromycin]",T1/2,human liver microsomes,46.5 min
same,Deg-AZM remaining,CYP2C9,67.5%
same,Deg-AZM remaining,pooled HLM,45.7%
same,"CYP2B6 induction, % of PC","CYP2B6; 5 μM, batch HUB",−0.466%
same,"CYP2B6 induction, % of PC","CYP2B6; 5 μM, batch LHuf 17905B",6.61%
same,"CYP2B6 induction, % of PC","CYP2B6; 5 μM, batch MWB",4.39%
same,"CYP2B6 mRNA induction, times of control group","CYP2B6; 5 μM, hepatocyte batch HUB",0.942
same,"CYP2B6 mRNA induction, times of control group","CYP2B6; 5 μM, hepatocyte batch LHuf 17905B",1.61
same,"CYP2B6 mRNA induction, times of control group","CYP2B6; 5 μM, hepatocyte batch MWB",1.60
same,"CYP2B6 induction, % of PC","CYP2B6; 25 μM, batch HUB",0.0278%
same,"CYP2B6 induction, % of PC","CYP2B6; 25 μM, batch LHuf 17905B",5.00%
same,"CYP2B6 induction, % of PC","CYP2B6; 25 μM, batch MWB",6.09%
same,"CYP2B6 mRNA induction, times of control group","CYP2B6; 25 μM, hepatocyte batch HUB",1.00
same,"CYP2B6 mRNA induction, times of control group","CYP2B6; 25 μM, hepatocyte batch LHuf 17905B",1.46
same,"CYP2B6 mRNA induction, times of control group","CYP2B6; 25 μM, hepatocyte batch MWB",1.83
same,"CYP2B6 induction, % of PC","CYP2B6; 100 μM, batch HUB",2.97%
same,"CYP2B6 induction, % of PC","CYP2B6; 100 μM, batch LHuf 17905B",19.8%
same,"CYP2B6 induction, % of PC","CYP2B6; 100 μM, batch MWB",24.3%
same,"CYP2B6 mRNA induction, times of control group","CYP2B6; 100 μM, hepatocyte batch HUB",1.37
same,"CYP2B6 mRNA induction, times of control group","CYP2B6; 100 μM, hepatocyte batch LHuf 17905B",2.84
same,"CYP2B6 mRNA induction, times of control group","CYP2B6; 100 μM, hepatocyte batch MWB",4.33
same,Induction effect on CYP2B6 (conclusion),"CYP2B6; 5, 25, and 100 µM, three batches of human hepatocytes",has an induction effect
same,"Papp A→B at 1 h, 2 μM","[1]; 2 μM, 37°C 1 h, n = 3",0.326 ± 0.0481 ×10⁻⁶ cm/s
same,"Papp B→A at 1 h, 2 μM","[1]; 2 μM, 37°C 1 h, n = 3",5.27 ± 0.771 ×10⁻⁶ cm/s
same,"efflux ratio at 1 h, 2 μM","[1]; 2 μM, read-out: ER",16.2
same,"Papp A→B at 1 h, 10 μM","[1]; 10 μM, 37°C 1 h, n = 3",0.302 ± 0.0416 ×10⁻⁶ cm/s
same,"Papp B→A at 1 h, 10 μM","[1]; 10 μM, 37°C 1 h, n = 3",3.7 ± 0.485 ×10⁻⁶ cm/s
same,"efflux ratio at 1 h, 10 μM","[1]; 10 μM, read-out: ER",12.2
same,"Papp A→B at 1 h, 50 μM","[1]; 50 μM, 37°C 1 h, n = 3",0.316 ± 0.0201 ×10⁻⁶ cm/s
same,"Papp B→A at 1 h, 50 μM","[1]; 50 μM, 37°C 1 h, n = 3",3.16 ± 0.401 ×10⁻⁶ cm/s
same,"efflux ratio at 1 h, 50 μM","[1]; 50 μM, read-out: ER",10
same,Permeability classification,Caco-2 cell monolayer,low permeability drug with poor transmembrane ability
same,Residual proportion of Deg-AZM,[2],107%
